The results in this text go back to patent US11154571B2, “Exosomes sourced from granulocytic myeloid-derived suppressor cells and application thereof” (Jiangsu University, priority 2015, dated 2021).

For this assay, the target named is T1, Arg-1 (Mus musculus, UniProt Q61176).
T1 construct: endogenous in cells; host or cells: primary G-MDSCs sorted from the spleen of tumor-bearing or CIA mice, and exosomes from their culture supernatant
T1 sequence (Q61176 1-323): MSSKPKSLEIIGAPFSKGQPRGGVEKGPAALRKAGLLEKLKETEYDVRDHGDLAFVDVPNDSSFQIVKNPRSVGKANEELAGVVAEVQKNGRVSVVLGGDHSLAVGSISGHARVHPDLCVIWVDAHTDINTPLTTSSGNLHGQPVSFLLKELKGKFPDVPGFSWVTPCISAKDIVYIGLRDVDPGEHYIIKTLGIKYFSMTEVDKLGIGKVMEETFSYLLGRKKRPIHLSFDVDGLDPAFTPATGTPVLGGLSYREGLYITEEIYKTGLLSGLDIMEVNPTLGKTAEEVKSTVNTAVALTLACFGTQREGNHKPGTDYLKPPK
The assay is described as follows: Arg-1 activity detection (arginase assay kit). Type of assay: biochemical. The conditions noted are these: nor-NOHA (5 mg/ml in DMSO) added to G-MDSC culture; FIG. 7A. The method, then:
(1) The activity detection of Arg-1 in G-MDSC exo and inhibition effect of nor-NOHA on the Arg-1 activity in G-MDSC exo: The sorted G-MDSCs are same to example 1. Inoculate 2×10^6 G-MDSCs per well in 24 well plate, and add 1 ml of RPMI-1640 medium and culture at 37° C., 5% CO2 for 16 h. The culture supernatant is collected and used for preparing G-MDSC exo, then the G-MDSC exo was lysed (the same with example 2), and the G-MDSC exo activity was measured with the arginase assay kit from eBioscience company. 5 mg of nor-NOHA powder was dissolved with 1 ml of DMSO, 5 mg/ml nor-NOHA solution is prepared. Experimental groups were treated as follows:
G-MDSC group: G-MDSCs were cultured, and cells are collected.
(G-MDSC+DMSO) group: G-MDSC is cultured after adding […] of DMSO, and cells were collected.
(G-MDSC+NN) group: G-MDSC is cultured after adding […] of nor-NOHA, and cells were collected.
G-MDSC exo group: G-MDSC is cultured, culture supernatant was collected.
(G-MDSC+DMSO) exo group: G-MDSC is cultured after adding […] of DMSO, culture supernatant was collected.
(G-MDSC+NN) exo group: G-MDSC is cultured after adding […] of nor-NOHA, culture supernatant was collected.

For `N=C(NO)NCC[C@H](N)C(=O)O` [NN, nor-NOHA], the “inhibition of Arg-1 activity in G-MDSC exo” value is listed as “could be inhibited”.
